In patent US20180140612A1, “TOPICAL OPHTHALMIC FORMULATIONS FOR THE TREATMENT AND PREVENTION OF MIGRAINE HEADACHE” (Ora, Inc., priority 2013, published 2018):
Where a name gives a salt, the structure may show the parent alone.

How the values were obtained:
[1] = first month of treatment; prescription-event data; cited from earlier work
[2] = cited from earlier work
[3] = topical 0.5% ophthalmic solution, twice daily dosing for 8 days, cited from earlier work
[4] = instillation of ophthalmic drops in the eye of subjects with migraine; format: in vivo, human; details: two subjects with occasional migraine
Protocol: Data from two subjects with occasional migraine has shown that one drop of ketotifen 0.025% in the eye was successful in providing relief within 2 hours post treatment
Data from two subjects with occasional migraine has shown that one drop of ketotifen 0.05% in the eye was successful in providing relief within 2 hours post treatment

[5] = migraineurs versus control subjects; cited from earlier work

Structure (SMILES): O=C(O)COCCN1CCN([C@H](c2ccccc2)c2ccc(Cl)cc2)CC1 [levocetirizine]
- association of headache/migraines with treatment [1]: positively associated

Structure (SMILES): CC(C)NCC(O)COc1ccc(CCOCC2CC2)cc1 (centres unmarked) [betaxolol]
- migraine related complaints ([2]; case control study, group of subjects receiving the topical beta-blocker): showed improvement in their migraine related complaints

Structure (SMILES): CC(C)(C)NC[C@H](O)COc1nsnc1N1CCOCC1 [timolol maleate]
- further attacks of migraine ([2]; case report, person with history of common migraine, topical timolol maleate 0.5% for bilateral ocular hypertension): did not experience any further attacks of migraine
- time of peak plasma concentration following first dose [3]: ≤ 4 h
- peak plasma concentration ([3]; following first dose): 0.5 ng/mL

Structure (SMILES): CN1CCC(=C2c3ccccc3CC(=O)c3sccc32)CC1 [ketotifen]
- time to relief post treatment ([4]; one drop of ketotifen 0.025% in the eye): ≤ 2 h
- time to relief post treatment ([4]; one drop of ketotifen 0.05% in the eye): ≤ 2 h

Structure (SMILES): NCCc1c[nH]cn1 [histamine]
- induction of migraine headache [5]: induced migraine headache more often in migraineurs than in control subjects
